Data from ChEMBL document CHEMBL1782005, “Turnagainolides A and B, cyclic depsipeptides produced in culture by a Bacillus sp.: isolation, structure elucidation, and synthesis” (J Nat Prod, 2011).
Active and inactive are the calls of the source. No cut-off for these calls is given here.

Biological target: T1, Phosphatidylinositol 3,4,5-trisphosphate 5-phosphatase 1 (Homo sapiens) (UniProt Q92835)
T1 sequence (whole entry): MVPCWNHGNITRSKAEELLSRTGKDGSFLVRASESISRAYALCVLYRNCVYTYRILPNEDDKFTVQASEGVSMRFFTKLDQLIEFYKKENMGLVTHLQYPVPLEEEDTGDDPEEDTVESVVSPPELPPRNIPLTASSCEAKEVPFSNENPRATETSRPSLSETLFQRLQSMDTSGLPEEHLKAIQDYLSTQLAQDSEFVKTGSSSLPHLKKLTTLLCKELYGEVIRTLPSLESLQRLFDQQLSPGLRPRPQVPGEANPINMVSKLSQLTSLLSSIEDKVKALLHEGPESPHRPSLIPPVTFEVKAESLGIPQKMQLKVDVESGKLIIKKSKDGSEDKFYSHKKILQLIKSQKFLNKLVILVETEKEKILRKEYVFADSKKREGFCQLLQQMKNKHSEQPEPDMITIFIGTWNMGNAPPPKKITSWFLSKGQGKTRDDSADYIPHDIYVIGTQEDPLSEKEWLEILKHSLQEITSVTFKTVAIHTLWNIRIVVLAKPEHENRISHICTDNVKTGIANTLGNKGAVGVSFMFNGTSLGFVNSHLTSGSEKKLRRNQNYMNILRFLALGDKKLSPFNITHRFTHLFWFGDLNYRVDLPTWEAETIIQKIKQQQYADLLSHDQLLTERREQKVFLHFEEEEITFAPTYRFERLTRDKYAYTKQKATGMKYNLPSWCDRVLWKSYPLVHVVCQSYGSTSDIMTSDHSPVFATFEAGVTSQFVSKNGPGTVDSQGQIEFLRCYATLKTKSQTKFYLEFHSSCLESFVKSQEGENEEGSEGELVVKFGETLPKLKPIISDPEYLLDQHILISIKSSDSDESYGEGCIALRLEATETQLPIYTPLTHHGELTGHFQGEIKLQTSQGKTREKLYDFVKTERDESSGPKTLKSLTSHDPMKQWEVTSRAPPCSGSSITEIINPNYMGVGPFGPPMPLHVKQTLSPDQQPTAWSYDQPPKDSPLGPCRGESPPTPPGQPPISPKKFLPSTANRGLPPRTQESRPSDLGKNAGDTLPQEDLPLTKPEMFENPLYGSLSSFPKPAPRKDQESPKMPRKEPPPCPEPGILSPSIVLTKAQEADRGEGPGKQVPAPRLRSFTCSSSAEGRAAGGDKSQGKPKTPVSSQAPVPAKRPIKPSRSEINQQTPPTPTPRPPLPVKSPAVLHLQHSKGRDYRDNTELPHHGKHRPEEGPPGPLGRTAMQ
Assay: Activation of SHIP1 using IP4 as substrate at 10 uM preincubated for 10 mins before addition of IP4 measured after 10 mins

SMILES: CC[C@H](C)[C@@H]1NC(=O)[C@@H](C)NC(=O)[C@H](C(C)C)NC(=O)C[C@H](/C=C/c2ccccc2)OC(=O)[C@H](C(C)C)NC1=O
- Activity: inactive

SMILES: Cc1cc(O)cc2c1[C@]1(C)CC[C@H]3C(C)(C)CCC[C@]3(C)[C@H]1C2
- Activity: Active

SMILES: CC[C@H](C)[C@@H]1NC(=O)[C@@H](C)NC(=O)[C@H](C(C)C)NC(=O)C[C@@H](/C=C/c2ccccc2)OC(=O)[C@H](C(C)C)NC1=O
- Activity: Active
